Here are results for two compounds from US20090170862A1, “USE OF C-KIT INHIBITORS FOR THE TREATMENT OF MYELOMA” (priority 2001, published 2009).

The subject of series [1] is MM.1S cells. Kind of series: Survival / cell death of MM.1S cells in the presence of dexamethasone and IL-6. The conditions noted are these: for inhibition of survival of MM.1S cells: 24 h, dexamethasone 0.1 or 1 μM, PTK787 5 μM, p<0.001. Format: cell-based, human. The method, then:
MM.1S cells are incubated for 24 h in 1% RPMI, in the presence or absence of dexamethasone (0.1 or 1 μM), PTK787 (5 μM), IL-6 (20 and 100 ng/ml) and VEGF (50 ng/ml).

Series [2] deals with patient PCL cells. Kind of series: Proliferation of patient PCL cells in an adhesion co-culture system with BMSCs. Format: cell-based, human. The conditions noted are these: 5 μM, compared to controls, p<0.0001. The method, then: (§1) Co-culturing of MM.1S cells or patient PCL cells with BMSCs increases growth of tumor cells by 1.8 to 2.8-fold, compared to the combination of BMSCs and MM cells alone. Addition of PTK787 (5 μM) to this co-culture system decreases proliferation of both MM.1S cells and patient PCL cells by 75% (p<0.0001), when compared to controls. These effects are observed whether the BMSCs are derived from a normal donor or patient BM.

For series [3], the system named is MM cell lines. Kind of series: Proliferation of MM cell lines and patient tumor cells ([3H]-thymidine uptake). Format: cell-based, human. The method, then:
FIGS. 2 to 4. Dose-related effect of PTK787 on proliferation of MM cell lines and patient tumor cells. MM.1S, MM.1R, RPMI 8226, patient PCL cells, patient MM cells and HUVE cells were incubated in the presence of 0 (□), 1 (▪), 5 ( ? ), 10 ( ? ) and 20 ( ? ) μM of PTK787. In addition, HUVE cells are also exposed to 0.01 ( ? ), and 0.1 ( ? ) μM of drug. Proliferation is measured as a percentage of 3H-dT uptake relative to standard. The experiments are performed in triplicate, and standard deviation bars are shown.
RPMI 8226 and U266 human MM cell lines are obtained from the American Type Culture Collection (ATCC) of Rockville, Md. Patient derived MM cells are purified from patient BM samples, as described by Y. T. Tai, G. Teoh, Y. Shima, et al in J. Immunol. Methods 235:11, 2000. All human MM cell lines are cultured in RPMI-1640 media (Sigma Chemical, St. Louis, Mo.), containing 10% fetal bovine serum (FBS), 2 mmol/L L-glutamine (L-glut, GIBCO, Grand Island, N.Y.), 100 U/mL penicillin and […] streptomycin (P/S, GIBCO). MM patient cells are ≧95% CD38+, CD45RA−. Bone marrow stromal cells (BMSCs) are prepared from aspirates of MM patients as well as healthy donors as described by D. Gupta, S. Treon, Y. Shima, et al in Leukemia, 2001 and S. Gartner and H. S. Kaplan in Proc. Natl. Acad. Sci. USA 77:4756, 1980. […]

Series [4] concerns MM.1S cells. The following applies: for inhibition of proliferation of MM.1S cells: 24 h, dexamethasone 0.1 or 1 μM, PTK787 5 μM; for inhibition of proliferation of MM.1S cells / inhibition of MM.1S proliferation with IL-6: p<0.001; for inhibition of MM.1S proliferation without IL-6: comparison arm.
Experimental: MM cells are first starved for 12 h in RPMI-1640 media containing 2% fetal bovine serum, and then plated into 96-well microtiter plates (Costar, Cambridge, Mass.), in the presence of drug or DMSO control. Experiments are also performed in the presence or absence of VEGF165 (R and D Systems). Proliferation is measured by the incorporation of [^3H]-thymidine (NEN Products, Boston, Mass.). Specifically, cells are pulsed with [^3H]-thymidine (0.5 μCi/well) for the last 6 h of 48 h cultures, harvested onto glass filters with an automatic cell harvester (Cambridge Technology, Cambridge, Mass.), and counted using a LKB Betaplate scintillation counter (Wallac, Gaithersburg, Md.). Measurement of cell viability is performed colorimetrically by MTS assay, utilizing the CellTiter96 AQueous One Solution Reagent (Promega, Madison, Wis.). Cells are exposed to the MTS for the last 2 h of 48 h cultures, and absorbance is measured using an ELISA plate reader (Molecular Devices Corp., Sunnyvale, Calif.) at OD of 570 nm.
Series [5] has as its system BMSCs. Kind of series: Viability of BMSCs (trypan blue exclusion and MTS assay). It is filed as cell-based, human. The conditions noted are these: with PTK787 in the co-culture system. In general terms: Tetrazolium assays rely on reduction of a dye to a coloured formazan, in cell work by metabolically active cells.
In series [6] the test system is human carcinomas (A431, Ls174T, HT-29, PC-3). The following applies: Cancer Res. 60: 2178, 2000, cited from earlier work.
Series [7] concerns MM.1S cells. Kind of series: Proliferation of MM cells in a modified Boyden chamber transwell co-culture system with BMSCs. The conditions noted are these: 5 μM; transwell co-culture with BMSCs without contact; 48 h; p<0.001. It is filed as cell-based, human. Here is the method: Proliferation is measured in a modified Boyden chamber transwell system, using 24-well plates with a […] pore size inserts (Costar). BMSCs (4×10^4 cells/well) are plated in the lower chamber, starved, and incubated in drug as described above. MM cells (20×10^4 cells/ml) are then placed in the upper chamber (insert), and [^3H]-thymidine uptake in the individual chambers is measured at 48 h as described above.
MM.1 S cells are placed in the upper chamber of a transwell co-culture system in order to preclude direct contact between MM cells and BMSCs, but nonetheless allow for diffusion of humoral factors. Despite the lack of contact between the two cell types, uptake of [^3H]-dT by MM.1S cells incubated with BMSCs is increased by 2.2-fold (p<0.0001) at 48 h. […] When PTK787 (5 μM) is used in this co-culture system, it reduces proliferation of MM.1S cells by 62% (p<0.001).

For series [8], the system named is MM.1S cells. Kind of series: Proliferation of MM.1S cells in an adhesion co-culture system with BMSCs. Format: cell-based, human. The following applies: 5 μM, compared to controls, p<0.0001. Here is the method: as §1
Series [9] relates to A431, Ls174T, HT-29, PC-3 tumor cells. The following applies: cited from earlier work.
The test system of series [10] is IL-6. Kind of series: IL-6 levels in supernatants of MM.1S/BMSC co-culture (ELISA). The following applies: MM.1S/BMSC co-culture supernatants, 48 h. (In general: An ELISA detects its analyte on a solid surface through an enzyme-linked reagent.)
Experimental: Cytokine levels are measured in supernatants from the co-culture system described above. VEGF and IL-6 concentrations are measured using commercially available ELISA kits (R&D Systems). Statistical significance of differences is determined using unpaired Student's t-test. The minimal level of significance is considered as p<0.05.
Supernatants obtained from a co-culture of MM.1S cells with BMSCs are isolated at 48 h, and IL-6 levels are measured using ELISA assay.
Series [11] relates to MM.1S cells. Kind of series: Transwell cell migration assay (modified Boyden chamber). Format: cell-based, human. The method, then:
MM.1S cells are exposed to PTK787 at concentrations 0, 1, 5 and 10 μM for 4 h and then added to the upper chamber of a transwell system. To the lower wells are added either VEGF (□, 10 ng/ml) or CD40 (Δ, 10 ng/ml), and cells are allowed to migrate to the lower chamber over a 5 h period. A lower chamber without any VEGF or CD40 (∘) serves as a control. Migrated cells are counted on a Beckman Coulter counter, and a migration index is obtained as described in Example 2, below. Experiments are performed in triplicate, and standard deviation bars are shown.
The migration assay is performed in a modified Boyden chamber system; using a 24 well plate with 8 μm pore size inserts. Prior to the assay, the upper and lower chambers are pre-coated with fibronectin (10 μg/ml). MM.1S cells are starved in 2% RPMI media for 6 hours prior to assay, then treated with drug or DMSO control for 4 h. MM cells (2×10^6 cells/ml) are then placed into the upper chamber of the transwell system. To the lower chamber is added RPMI (1% FBS), 0 or 10 ng/ml of VEGF165, or an activating MoAb to CD40 (10 ng/ml). The plates are then incubated at 37° C. for 6 h, and then cells in the lower chamber are harvested. The number of live migrated cells is gated and measured using a Beckman Coulter counter. A migration index is calculated to compare migration of cells relative to control. The migration index is defined herein as the percentage of live migrated cells in the sample (with or without drug, and ±VEGF), divided by the percentage of live migrated cells in the control (no drug, no VEGF).

On to `Clc1ccc(Nc2nnc(Cc3ccncc3)c3ccccc23)cc1` [PTK787], for which, in [1], the “inhibition of survival of MM.1S cells” value was found to be 46%. The “cell death of MM.1S cells without IL-6” value in series [1] (PTK787 alone, second value of '54% vs. 65%') turned out to be 65%. Moreover, the “cell death of MM.1S cells with IL-6” value in series [1] (PTK787 plus IL-6, first value of '54% vs. 65%', p<0.01) amounted to 54%. For the same compound, the “decrease of proliferation of patient PCL cells” value in [2] was determined as 75%. In series [3] (0-20 μM PTK787, 3H-dT uptake), the “proliferation of MM.1S, Dex-resistant MM.1R, RPMI, patient PCL and patient MM cells” value was “decreases, in a dose dependent manner”. Besides, the “proliferation in MM cell lines with or without VEGF” value in series [3] (PTK787 (1 to 5 μM), presence or absence of VEGF) is recorded as “abrogates proliferation both in the presence or absence of VEGF”. Further, in series [4], the “inhibition of proliferation of MM.1S cells” value is given as 35%, the “inhibition of MM.1S proliferation with IL-6” value worked out at 64.7% and the “inhibition of MM.1S proliferation without IL-6” value came to 39.3%. In addition, the “viability of BMSCs” value in [5] turned out to be 95%. Also, the “growth of human carcinomas transplanted orthotopically into mice” value in series [6] (A431, Ls174T, HT-29, PC-3) is listed as “inhibits the growth”. For the same compound, in [6], the “vessel density in the tumor tissues” value is on record as “does reduce vessel density”. For the same compound, in [7], the “reduction of proliferation of MM.1S cells” value is reported as 62%. Moreover, the “decrease of proliferation of MM.1S cells” value in series [8] is 75%. Also, in series [9], the “direct effect on tumor cells” value is recorded as “does not have a direct effect”. The “decrease of IL-6 concentrations” value in series [10] was 70%. The “VEGF-induced migration of MM.1S cells” value in series [11] (1 μM PTK787, VEGF 10 ng/ml, p=0.002) is listed as “reduced to baseline levels”. Further, the “baseline and VEGF-induced migration of MM.1S cells” value in [11] (5 and 10 μM PTK787) was “further reduces”. The “migration of MM.1S cells induced by CD40” value in series [11] (activating MoAb to CD40 10 ng/ml) is given as “does not significantly inhibit”.

In the case of `C[C@@H]1C[C@H]2[C@@H]3CCC4=CC(=O)C=C[C@]4(C)[C@@]3(F)[C@@H](O)C[C@]2(C)[C@@]1(O)C(=O)CO` [Dexamethasone, dexamethasone, reference compound], the “inhibition of survival of MM.1S cells” value in series [1] turned out to be 83%. Besides, in [4], the “inhibition of proliferation of MM.1S cells” value is 58%, the “inhibition of MM.1S proliferation with IL-6” value is 16% and the “inhibition of MM.1S proliferation without IL-6” value was determined as 70.5%.
